# Data from ChEMBL document CHEMBL6134851, “Comparative Study on Covalent and Noncovalent Endogenous Albumin-Binding β-Glucuronidase-Activated SN38 Prodrugs for Antitumor Efficacy” (J Med Chem, 2025).
# The source made the active and inactive calls. The rule behind the calls is not given here.
# Assays:
# [1] = Toxicity in female BALB/cA nude mouse assessed as appearance of inflammatory lesions in spleen at 25 mg/kg, iv administered once a week for 35 days by H and E staining based analysis; assay type: organism-based; conditions: in vivo, 840 h, time 35 day
# [2] = Toxicity in female BALB/cA nude mouse assessed as fibrotic changes in lung at 25 mg/kg, iv administered once a week for 35 days by H and E staining based analysis; assay type: organism-based; conditions: in vivo, 840 h, time 35 day
# [3] = Toxicity in female BALB/cA nude mouse assessed as appearance of inflammatory lesions in lung at 25 mg/kg, iv administered once a week for 35 days by H and E staining based analysis; assay type: organism-based; conditions: in vivo, 840 h, time 35 day
# [4] = test system: HCT-116; assay: Antitumor activity against human HCT-116 cells xenografted in female BALB/cA nude mouse model assessed as tumor shrinkage at 25 mg/kg, iv administered twice per week measured after 100 days relative to control; assay type: functional; conditions: time 100 day
# [5] = Half life in female BALB/c mouse at 25 mg/kg measured up to 120 hrs by HPLC analysis; assay type: ADME, organism-based; conditions: in vivo
# [6] = Toxicity in female BALB/cA nude mouse assessed as mortality at 25 mg/kg, iv administered twice per week measured after 107 days; assay type: organism-based; conditions: in vivo, 2568 h, time 107 day
# [7] = Volume of distribution in female BALB/c mouse at 25 mg/kg measured up to 120 hrs by HPLC analysis; assay type: ADME, organism-based; conditions: in vivo
# [8] = test system: HCT-116; assay: Antitumor activity against human HCT-116 cells xenografted in female BALB/cA nude mouse model assessed as tumor shrinkage by measuring relative tumor proliferation rate at 25 mg/kg,iv administered twice per week and measured after 24 days relative to control; assay type: functional; conditions: time 24 day
# [9] = Toxicity in female BALB/cA nude mouse assessed as animal fatality at 25 mg/kg, iv administered once a week for 35 days; assay type: organism-based; conditions: in vivo, 840 h, time 35 day
# [10] = test system: BXPC-3; assay: Antitumor activity against human BXPC-3 cells xenografted in female BALB/cA nude mouse model assessed as suppression of tumor growth by measuring relative tumor proliferation rate at 25 mg/kg, iv measured after 24 days relative to control; assay type: functional; conditions: time 24 day
# [11] = Toxicity in female BALB/cA nude mouse assessed as effect on body weight loss at 25 mg/kg, iv administered twice per week measured after 107 days; assay type: organism-based; conditions: in vivo, 2568 h, time 107 day
# [12] = Toxicity in female BALB/cA nude mouse assessed as effect on body weight loss at 25 mg/kg, iv administered once a week for 35 days; assay type: organism-based; conditions: in vivo, 840 h, time 35 day
# [13] = Toxicity in female BALB/cA nude mouse assessed as fibrotic changes in spleen at 25 mg/kg, iv administered once a week for 35 days by H and E staining based analysis; assay type: organism-based; conditions: in vivo, 840 h, time 35 day
# [14] = Toxicity in female BALB/cA nude mouse assessed as appearance of inflammatory lesions in kidney at 25 mg/kg, iv administered once a week for 35 days by H and E staining based analysis; assay type: organism-based; conditions: in vivo, 840 h, time 35 day
# [15] = Toxicity in female BALB/cA nude mouse assessed as appearance of inflammatory lesions in heart at 25 mg/kg, iv administered once a week for 35 days by H and E staining based analysis; assay type: organism-based; conditions: in vivo, 840 h, time 35 day
# [16] = Toxicity in female BALB/cA nude mouse assessed as fibrotic changes in tumor at 25 mg/kg, iv administered once a week for 35 days by H and E staining based analysis; assay type: organism-based; conditions: in vivo, 840 h, time 35 day
# [17] = Toxicity in female BALB/cA nude mouse assessed as appearance of inflammatory lesions in kidney at 38 mg/kg, iv administered once a week for 35 days by H and E staining based analysis; assay type: organism-based; conditions: in vivo, 840 h, time 35 day
# [18] = Toxicity in female BALB/cA nude mouse assessed as fibrotic changes in lung at 38 mg/kg, iv administered once a week for 35 days by H and E staining based analysis; assay type: organism-based; conditions: in vivo, 840 h, time 35 day
# [19] = Toxicity in female BALB/cA nude mouse assessed as effect on body weight loss at 38 mg/kg, iv administered twice per week measured for 107 days; assay type: organism-based; conditions: in vivo, 2568 h, time 107 day
# [20] = Toxicity in female BALB/cA nude mouse assessed as damage in heart at 38 mg/kg, iv measured after 24 hrs by H and E staining based analysis; assay type: organism-based; conditions: in vivo
# [21] = Toxicity in female BALB/cA nude mouse assessed as appearance of inflammatory lesions in liver at 38 mg/kg, iv administered once a week for 35 days by H and E staining based analysis; assay type: organism-based; conditions: in vivo, 840 h, time 35 day
# [22] = Cmax in female BALB/c mouse at 38 mg/kg measured up to 168 hrs by HPLC analysis; assay type: ADME, organism-based; conditions: in vivo
# [23] = Toxicity in female BALB/cA nude mouse assessed as appearance of inflammatory lesions in tumor at 38 mg/kg, iv administered once a week for 35 days by H and E staining based analysis; assay type: organism-based; conditions: in vivo, 840 h, time 35 day
# [24] = Prodrug release in female BALB/c nude mouse tumor assessed as (S)-4,11-diethyl-4,9-dihydroxy-1,12-dihydro-14H-pyrano[3',4':6,7]indolizino[1,2-b]quinoline-3,14(4H)-dione accumulation at 38 mg/kg measured after 6 hrs by HPLC analysis; assay type: ADME, organism-based, Neoplasm; conditions: in vivo
# [25] = Toxicity in female BALB/cA nude mouse assessed as mortality at 38 mg/kg, iv administered twice per week measured after 107 days; assay type: organism-based; conditions: in vivo, 2568 h, time 107 day
# [26] = Toxicity in female BALB/cA nude mouse assessed as fibrotic changes in heart at 38 mg/kg, iv administered once a week for 35 days by H and E staining based analysis; assay type: organism-based; conditions: in vivo, 840 h, time 35 day
# [27] = Volume of distribution in female BALB/c mouse at 38 mg/kg measured up to 168 hrs by HPLC analysis; assay type: ADME, organism-based; conditions: in vivo
# [28] = Toxicity in female BALB/cA nude mouse assessed as appearance of fibrosis in heart at 38 mg/kg, iv measured after 24 hrs by H and E staining based analysis; assay type: organism-based; conditions: in vivo
# [29] = Toxicity in female BALB/cA nude mouse assessed as appearance of inflammatory lesions in lung at 38 mg/kg, iv administered once a week for 35 days by H and E staining based analysis; assay type: organism-based; conditions: in vivo, 840 h, time 35 day
# [30] = test system: BXPC-3; assay: Antitumor activity against human BXPC-3 cells xenografted in female BALB/cA nude mouse model assessed as suppression of tumor growth by measuring relative tumor proliferation rate at 38 mg/kg, iv measured after 17 days relative to control; assay type: functional; conditions: time 17 day
# [31] = test system: BXPC-3; assay: Antitumor activity against human BXPC-3 cells xenografted in female BALB/cA nude mouse model assessed as suppression of tumor growth by measuring relative tumor proliferation rate at 38 mg/kg, iv measured after 18 days; assay type: functional, organism-based; conditions: time 18.0 day
# [32] = Toxicity in female BALB/cA nude mouse assessed as fibrotic changes in kidney at 38 mg/kg, iv administered once a week for 35 days by H and E staining based analysis; assay type: organism-based; conditions: in vivo, 840 h, time 35 day
# [33] = Toxicity in female BALB/cA nude mouse assessed as necrosis in tumor tissue at 38 mg/kg, iv measured after 24 hrs by H and E staining based analysis; assay type: organism-based; conditions: in vivo
# [34] = AUC (0 to t) in female BALB/c mouse at 38 mg/kg measured up to 168 hrs by HPLC analysis; assay type: ADME, organism-based; conditions: in vivo
# [35] = Toxicity in female BALB/cA nude mouse assessed as damage in lung at 38 mg/kg, iv measured after 24 hrs by H and E staining based analysis; assay type: organism-based; conditions: in vivo
# [36] = test system: HCT-116; assay: Antitumor activity against human HCT-116 cells xenografted in female BALB/cA nude mouse model assessed as relative tumor proliferation rate at 38 mg/kg, iv administered twice per week measured after 107 days; assay type: functional, organism-based; conditions: time 107.0 day
compound,measurement,setting,value
CCc1c2c(nc3ccc(OCc4ccc(O[C@@H]5O[C@H](C(=O)O)[C@@H](O)[C@H](O)[C@H]5O)c(NC(=O)CCNC(=O)CCCCCN5C(=O)C=CC5=O)c4)cc13)-c1cc3c(c(=O)n1C2)COC(=O)[C@]3(O)CC,Activity,[1],Non-toxic
same,Activity,[2],Non-toxic
same,Activity,[3],Non-toxic
same,Activity,[4],100%
same,t1/2,[5],52.31 h
same,Activity,[6],Non-toxic
same,Vd,[7],0.61 L/kg
same,Activity,[8],4.6%
same,Activity,[9],Non-toxic
same,Activity,[10],8.97%
same,Activity,[11],Non-toxic
same,Activity,[12],Non-toxic
same,Activity,[13],Non-toxic
same,Activity,[14],Non-toxic
same,Activity,[15],Non-toxic
same,Activity,[16],Non-toxic
CCc1c2c(nc3ccc(OCc4ccc(O[C@@H]5O[C@H](C(=O)O)[C@@H](O)[C@H](O)[C@H]5O)c(NC(=O)CCNC(=O)COCCOCCNC(=O)COCCOCCNC(=O)CC[C@H](NC(=O)CCCCCCCCCCCCCCCCC(=O)O)C(=O)O)c4)cc13)-c1cc3c(c(=O)n1C2)COC(=O)[C@]3(O)CC,Activity,[17],Non-toxic
same,Activity,[18],Non-toxic
same,Activity,[19],Non-toxic
same,Activity,[20],Toxic
same,Activity,[21],Non-toxic
same,Cmax,[22],112 µg/mL
same,Activity,[23],Non-toxic
same,Drug metabolism,[24],0.376 % ID/g
same,Activity,[25],Non-toxic
same,Activity,[26],Non-toxic
same,Vd,[27],0.24 L/kg
same,Activity,[28],Toxic
same,Activity,[29],Non-toxic
same,Activity,[30],34.39%
same,Activity,[31],inactive
same,Activity,[32],Non-toxic
same,Activity,[33],Toxic
same,AUC(0-t) at 168 h,[34],837 µg·h/mL
same,Activity,[35],Toxic
same,Activity,[36],inactive
